Measured values: US5688938A, “Calcium receptor-active molecules” (priority 1995, dated 1997)
Where a name gives a salt, the structure may show the parent alone.

The compounds below were run against T1, parathyroid cell calcium receptor (Bos taurus, UniProt P35384) (assay: cell-based). Conditions: not given.
T1 sequence (P35384 21-1085 limits assumed): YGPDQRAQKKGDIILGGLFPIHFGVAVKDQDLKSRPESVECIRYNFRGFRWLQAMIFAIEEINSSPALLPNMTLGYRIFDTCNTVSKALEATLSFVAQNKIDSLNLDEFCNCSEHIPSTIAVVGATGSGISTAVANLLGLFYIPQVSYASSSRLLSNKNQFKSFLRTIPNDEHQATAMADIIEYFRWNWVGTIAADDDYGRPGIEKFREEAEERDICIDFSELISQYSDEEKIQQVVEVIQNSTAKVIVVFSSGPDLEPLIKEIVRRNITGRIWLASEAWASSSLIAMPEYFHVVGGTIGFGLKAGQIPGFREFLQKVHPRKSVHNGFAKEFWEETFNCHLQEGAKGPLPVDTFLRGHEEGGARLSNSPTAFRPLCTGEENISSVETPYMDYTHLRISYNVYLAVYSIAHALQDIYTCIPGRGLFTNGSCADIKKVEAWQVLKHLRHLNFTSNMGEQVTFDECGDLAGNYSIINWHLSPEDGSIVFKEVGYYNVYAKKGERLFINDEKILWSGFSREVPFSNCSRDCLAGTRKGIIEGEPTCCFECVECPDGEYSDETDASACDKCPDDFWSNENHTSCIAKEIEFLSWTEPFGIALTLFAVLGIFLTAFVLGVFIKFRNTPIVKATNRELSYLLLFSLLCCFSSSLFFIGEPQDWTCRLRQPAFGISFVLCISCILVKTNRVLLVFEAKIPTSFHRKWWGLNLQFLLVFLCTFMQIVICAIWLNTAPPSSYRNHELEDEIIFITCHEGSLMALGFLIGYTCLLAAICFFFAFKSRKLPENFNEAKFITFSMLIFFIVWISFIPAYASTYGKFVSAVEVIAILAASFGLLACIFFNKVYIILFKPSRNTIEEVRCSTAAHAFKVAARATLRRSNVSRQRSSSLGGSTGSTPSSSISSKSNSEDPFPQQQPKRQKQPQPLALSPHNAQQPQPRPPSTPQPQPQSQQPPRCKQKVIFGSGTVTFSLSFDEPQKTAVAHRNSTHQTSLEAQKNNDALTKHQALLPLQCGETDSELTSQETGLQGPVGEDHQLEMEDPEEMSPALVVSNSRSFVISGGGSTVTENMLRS
Type: cell-based

SMILES | effect on mobilization of intracellular Ca^2+ elicited by molecular polycations
CCCCCCCCCCCCCC(=O)O[C@@H]1[C@@H](C)[C@@]2(O)[C@@H](C=C(CO)C[C@]3(O)C(=O)C(C)=C[C@@H]23)[C@@H]2C(C)(C)[C@]12OC(C)=O [PMA, phorbol myristate acetate, reference compound] | depressed

Same assay, conditions: 1 μM

SMILES | effect on basal [Ca^2+]i or increases evoked by extracellular Ca^2+
CC1=C(C(=O)OC(C)C)C(c2cccc3nonc23)C([N+](=O)[O-])=C(C)N1 (single isomer, unassigned; (-)) [(-) 202-791, reference compound] | None of the dihydropyridines tested
COC(=O)C1=C(C)NC(C)=C([N+](=O)[O-])C1c1ccccc1C(F)(F)F (stereo not shown) [BAY K 8644, reference compound] | None of the dihydropyridines tested
COC(=O)C1=C(C)NC(C)=C(C(=O)OC)C1c1ccccc1[N+](=O)[O-] [nifedipine, reference compound] | None of the dihydropyridines tested

Same assay, conditions: 100 μM

SMILES | effective at 100 μM (as verapamil and D-600)
COc1ccc([C@@H]2Sc3ccccc3N(CCN(C)C)C(=O)[C@@H]2OC(C)=O)cc1 [diltiazem, reference compound] | effective

Same assay, conditions: 400 μM

SMILES | increases in [Ca^2+]i | potentiation of cytosolic Ca^2+ responses to extracellular Ca^2+
N=C(N)NCCC[C@H](N)C(=O)NCCCNCCCNCCCCCNC(=O)[C@H](CC(N)=O)NC(=O)Cc1ccc(O)cc1O [Argiotoxin-636, reference compound] | did not elicit increases | did potentiate

Same assay, conditions: 500 μM

SMILES | effect on intracellular Ca^2+
CCCC(=O)N[C@@H](Cc1ccc(O)cc1)C(=O)NCCCCNCCCNCCCN [Philanthotoxin-433, reference compound] | without effect

Same assay, conditions: 100 to 300 μM

SMILES | increases in [Ca^2+]i
N=C(N)NCCC[C@H](N)C(=O)NCCCNCCCNCCCCCNC(=O)[C@H](CC(N)=O)NC(=O)Cc1ccc(O)cc1O [Argiotoxin-636, reference compound] | had no effect

Same assay, conditions: Table 6; bovine parathyroid cells; read-out: EC50 PARATHYROID

SMILES | EC50 [nM]
COc1cccc([C@H](C)NCCCc2ccccc2)c1 [NPS S-467] | > 30000
C[C@@H](NCCC(c1ccccc1)c1ccccc1)c1ccccc1 [R-Fendiline] | 9000

Same assay, conditions: Table 7; parathyroid cell calcium receptor; read-out: EC50

SMILES | EC50 [nM]
C[C@H](NCCC(c1ccccc1)c1ccccc1)c1ccccc1 [S-Fendiline] | > 15000
CC(NCCCc1ccccc1)c1ccccc1 (stereo not shown) [Compound 1D] | 48000
COc1cccc([C@H](C)NCCCc2ccccc2)c1 [NPS S-467] | > 30000
CC(NCCCCc1ccccc1)c1ccccc1 (stereo not shown) [Compound 1S] | 128000
COc1ccc(OC)c([C@@H](C)NCCCc2ccccc2)c1 [7Z(R-)] | > 30000
CCC(NCCC(c1ccccc1)c1ccccc1)c1ccccc1 (stereo not shown) [Compound 1E] | 123000
c1ccc(CNCCC(c2ccccc2)c2ccccc2)cc1 [Compound 1A] | 166000
COc1cccc([C@H](C)NCCCc2ccc(OC)c(OC)c2)c1 [Compound 20K] | > 30000
C[C@@H](NCCC(c1ccccc1)c1ccccc1)c1ccccc1 [R-Fendiline] | 9000
C[C@H](NCCCc1ccccc1)C1CCCCC1 [Compound 7Y] | > 30000
COc1ccc(OC)c([C@H](C)NCCCc2ccccc2)c1 [7Z(S-)] | > 100000
COc1cccc([C@H](C)NCCCc2ccc(C)cc2)c1 [Compound 8Y] | > 30000

Same assay, conditions: Table 8 (arylalkylamine calcimimetics); parathyroid cell calcium receptor; read-out: EC50

SMILES | EC50 [nM]
C[C@@H](NCc1ccc2c(c1)OCO2)c1cccc2ccccc12 [Compound 16R] | 360
CC(NCCC(c1ccccc1)c1ccccc1)c1cccc2ccccc12 (stereo not shown) [Compound 3U] | 640
CCOC(=O)COc1cccc([C@@H](C)NCc2ccc3ccccc3c2)c1 [Compound 11D] | 1800
CSc1ccc(CN[C@H](C)c2cccc3ccccc23)cc1 [Compound 16X] | 100
COc1cccc(C(C)NC(C)CCc2ccccc2)c1 (stereo not shown) [Compound 20R] | 2400
COc1cccc(C(C)NCCC(C)c2ccccc2Cl)c1 (stereo not shown) [Compound 4Y] | 1300
Cc1ccc(CN[C@H](C)c2cccc3ccccc23)cc1C [Compound 16V] | < 130
C[C@@H](NCc1ccc(Cl)c(Cl)c1)c1cccc2ccccc12 [Compound 13R] | 250
CCOc1cccc([C@@H](C)NCCCc2ccccc2Cl)c1 [Compound 6T] | 2900
COc1cccc([C@@H](C)NCCCc2ccccc2C)c1 [Compound 12U, (R)-N-3-(2-Methylphenyl)-1-propyl-3-methoxy-α-methylbenzylamine hydrochloride] | 1200
C[C@H](CCc1ccccc1)N[C@H](C)c1cccc2ccccc12 [Compound 21F] | 380
COc1cccc([C@@H](C)NC2CCc3ccccc3C2)c1 (stereo partly shown) [5W/5Y] | 3600
COc1ccc([C@H](C)N[C@H](C)c2cccc3ccccc23)cc1 [Compound 14V] | 1700
COc1cccc([C@@H](C)NCCCc2ccc(C)cc2)c1 [Compound 8X] | 760
COc1cccc([C@@H](C)NCCCc2ccc(F)cc2)c1 [Compound 4P] | 1600
COc1cccc([C@@H](C)NCCCc2cccc(F)c2)c1 [Compound 4N] | 800
COc1cccc(C(C)NC(C)c2cccc3ccccc23)c1 (stereo not shown) [Compound 6E] | 2700
COc1cccc([C@@H](C)NC2CCN(Cc3ccccc3)CC2)c1 [Compound 20F] | < 1000
COc1ccc(CN[C@H](C)c2cccc3ccccc23)cc1F [Compound 16T] | 40

SMILES | EC50 [nM]
COc1ccc(CN[C@H](C)c2cccc3ccccc23)cc1 [Compound 13U] | 190
C[C@@H](NCc1ccc2ccccc2c1)c1cccc2ccccc12 [Compound 9C] | 600
COc1cccc([C@@H](C)NCCCc2cccc(C)c2)c1 [Compound 12V, (R)-N-3-(3-Methylphenyl)-1-propyl-3-methoxy-α-methylbenzylamine hydrochloride] | 420
C[C@@H](CCc1ccccc1)N[C@H](C)c1cccc2ccccc12 [Compound 21G] | 1100
CCC(CCc1ccccc1)NC(C)c1cccc(OC)c1 (stereo not shown) [Compound 20S] | 4200
CCOc1ccc(CN[C@H](C)c2cccc3ccccc23)cc1 [Compound 16W] | 590
COc1ccc(CN[C@H](C)c2cccc3ccccc23)cc1C [Compound 16Q] | 40
CCCOc1ccc(CN[C@H](C)c2cccc3ccccc23)cc1 [Compound 13Q] | ~800
COc1cccc([C@@H](C)NCCCc2ccccc2OC)c1 [Compound 8U, (R)-(+)-N-3-(2-Methoxyphenyl)-1-propyl-3-methoxy-α-methylbenzylamine hydrochloride] | 440
CC(C)C(N[C@H](C)c1cccc2ccccc12)c1ccc2ccccc2c1 (stereo partly shown) [Compound 10F] | 890
COc1ccc(CCCN[C@H](C)c2cccc(OC)c2)cc1 [Compound 20I] | > 1000
COc1cccc([C@@H](C)NCCCc2ccc(C(F)(F)F)cc2)c1 [Compound 21Q] | 1400
C[C@@H](NCc1ccc(C(F)(F)F)cc1)c1cccc2ccccc12 [Compound 13S] | < 130
C[C@@H](NCc1ccc2c(c1)OCCO2)c1cccc2ccccc12 [Compound 13X] | < 750
CCOc1cccc([C@@H](C)NCCCc2ccccc2)c1 [Compound 6R] | 3400
COc1ccc([C@@H](C)N[C@H](C)c2cccc3ccccc23)cc1Cl [Compound 17X, (R,R)-N-(1-Ethyl-4'-methoxy-3'-chlorophenyl)-1-(1-naphthylethyl)amine] | 20
COc1cccc([C@@H](C)NCCCc2ccc(OC)c(OC)c2)c1 [Compound 20J] | > 3000
COc1cccc([C@@H](C)N[C@H](C)CCc2ccccc2)c1 [Compound 21D] | 3000

Same assay, conditions: bovine parathyroid cells, or Xenopus oocytes expressing calcium receptors

SMILES | response to mGluR agonists
N[C@@H](Cn1oc(=O)[nH]c1=O)C(=O)O [quisqualate, reference compound] | did not respond
N[C@@]1(C(=O)O)CC[C@@H](C(=O)O)C1 (relative stereo) [trans-ACPD, reference compound] | did not respond

Same assay, conditions: in words

SMILES | relative potency
CC(NCCCc1ccccc1)c1ccccc1 (stereo not shown) [Compound 1D] | nearly as potent as the parent molecule
COc1cccc(C(C)NCCC(c2ccccc2)c2ccccc2)c1 (stereo not shown) [meta-Methoxyfendiline] | as potent as NPS 467

Same assay, conditions: ionomycin 1 μM, 1799 5 μM

SMILES | effect on [Ca^2+]i response to extracellular Mg^2+
C[C@H](CCC(=O)O)C[C@H](C)C[C@H](C)C(=O)/C=C(\O)[C@H](C)C[C@H](C)C/C=C/[C@@H](C)[C@@H](O)[C@@H](C)[C@@H](O)C[C@@H]1CC[C@@](C)([C@H]2CC[C@@](C)([C@@H](C)O)O2)O1 [ionomycin, reference compound] | blocks the response to Mg^2+
O=C(CC(O)(C(F)(F)F)C(F)(F)F)CC(O)(C(F)(F)F)C(F)(F)F [molecule 1799, reference compound] | without effect on the response to Mg^2+

Same assay, conditions: parathyroid cell calcium receptor; […]; read-out: EC50

SMILES | EC50 [nM]
COc1cccc([C@@H](C)NCCCc2ccccc2C)c1 [Compound 12U, (R)-N-3-(2-Methylphenyl)-1-propyl-3-methoxy-α-methylbenzylamine hydrochloride] | < 5000
COc1cccc([C@@H](C)NCCCc2cccc(C)c2)c1 [Compound 12V, (R)-N-3-(3-Methylphenyl)-1-propyl-3-methoxy-α-methylbenzylamine hydrochloride] | < 5000
COc1cccc([C@@H](C)NCCCc2ccccc2OC)c1 [Compound 8U, (R)-(+)-N-3-(2-Methoxyphenyl)-1-propyl-3-methoxy-α-methylbenzylamine hydrochloride] | < 5000
COc1ccc([C@@H](C)N[C@H](C)c2cccc3ccccc23)cc1Cl [Compound 17X, (R,R)-N-(1-Ethyl-4'-methoxy-3'-chlorophenyl)-1-(1-naphthylethyl)amine] | < 5000
